Legend:
Type in all cases: cell-based
Full Length hPPARβ/δ = target: T1, Full Length hPPARβ/δ (Homo sapiens, UniProt Q03181); test: Full length hPPARβ/δ transfection assay; details: full length receptor; scale 1-5; read-out: Full Length hPPAR β/δ EC50 (scaled number)
T1 construct: Full Length; expressed in transfected cells; host or cells: Cos cells
T1 sequence (Q03181 1-441): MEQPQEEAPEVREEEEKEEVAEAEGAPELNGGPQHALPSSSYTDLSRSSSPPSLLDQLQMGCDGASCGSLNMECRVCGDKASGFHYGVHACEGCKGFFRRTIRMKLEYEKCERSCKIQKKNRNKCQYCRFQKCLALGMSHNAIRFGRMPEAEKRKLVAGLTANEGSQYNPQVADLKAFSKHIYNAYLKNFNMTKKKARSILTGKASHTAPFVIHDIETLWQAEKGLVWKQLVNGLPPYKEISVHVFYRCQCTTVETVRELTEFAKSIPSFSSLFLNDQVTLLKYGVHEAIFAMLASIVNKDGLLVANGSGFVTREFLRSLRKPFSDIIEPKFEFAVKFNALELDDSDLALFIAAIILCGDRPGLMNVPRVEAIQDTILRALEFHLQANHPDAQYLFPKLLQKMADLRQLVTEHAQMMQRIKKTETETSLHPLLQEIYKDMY
Description: (§1) Transient transfection assays. Cos cells were seeded in 60-mm dishes at a density of 5.5×10^5 cells/dish in Dulbecco's modified Eagle's medium (DMEM) supplemented with 10% fetal calf serum (FCS) and incubated at 37° C. for 24 hours before transfection. Cells were transfected in Opti-MEM (Gibco; Invitrogen, Carlsbad, Calif.) without FCS for 3 hours at 37° C., using polyethylenimine, with reporter and expression plasmids. The plasmid pBluescript (Stratagene, La Jolla, Calif.) was used as carrier DNA to set the final amount of DNA to 5.5 μg/dish. The pCMV-b-galactosidase expression plasmid was cotransfected as a control for transfection efficiency. Transfection was stopped by the addition of DMEM supplemented with 10% FCS, and cells were then incubated at 37° C. After 16 hours, cells were trypsinized and seeded in 96-well plates at the density of 2×10^4 cells/well and incubated for 6 hours in 10% FCS-containing DMEM. Cells were then incubated for 24 hours in DMEM containing 0.2% FCS and increasing concentrations of the compound tested or vehicle (DMSO). At the end of the experiment, cells were washed once with ice-cold PBS, lysed and the luciferase and b-galactosidase assays were performed in a luminometer and spectrophotomer. Transfection efficiencies were normalized with the b-galactosidase activity assay. Half-maximal effective concentration (EC50) was estimated using Prism software (GraphPad). All transfection experiments were performed at least three times.
(§2) In the following tables, proprietary compound EC50 values for hPPAR α, β, δ and γ are shown. The EC50 value is the concentration of a drug that induces a response halfway between the baseline and maximum, and is commonly used as a measure of drug potency. EC50 values are reported on a scale of 1 through 5, wherein the value scale is defined for each receptor as follows: […]

Full Length hPPARγ = target: T2, Full Length hPPARγ (Homo sapiens, UniProt P37231); test: Full length hPPARγ transfection assay; details: full length receptor; scale 1-5; read-out: Full Length hPPAR γ EC50 (scaled number)
T2 construct: Full Length; expressed in transfected cells; host or cells: Cos cells
T2 sequence (P37231 1-505): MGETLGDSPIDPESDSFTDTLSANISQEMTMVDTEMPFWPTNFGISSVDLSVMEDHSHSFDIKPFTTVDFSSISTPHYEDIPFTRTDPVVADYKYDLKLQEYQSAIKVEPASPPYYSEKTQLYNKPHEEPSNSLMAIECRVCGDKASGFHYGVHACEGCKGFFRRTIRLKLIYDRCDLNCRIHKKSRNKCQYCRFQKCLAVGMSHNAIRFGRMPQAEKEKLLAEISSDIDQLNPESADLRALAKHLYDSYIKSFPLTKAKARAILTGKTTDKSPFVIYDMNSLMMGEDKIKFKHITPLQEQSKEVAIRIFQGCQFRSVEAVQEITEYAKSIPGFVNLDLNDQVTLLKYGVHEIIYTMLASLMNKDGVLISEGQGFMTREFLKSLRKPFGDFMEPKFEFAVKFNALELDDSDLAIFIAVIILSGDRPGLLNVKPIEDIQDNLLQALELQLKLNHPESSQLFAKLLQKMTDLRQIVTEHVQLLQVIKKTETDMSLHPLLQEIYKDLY
Description: as §1, §2

Full Length hPPARα = target: T3, Full Length hPPARα (Homo sapiens, UniProt Q07869); test: Full length hPPARα transfection assay; details: full length receptor; read-out: Full Length hPPAR α EC50 (scaled number)
T3 construct: Full Length; expressed in transfected cells; host or cells: Cos cells
T3 sequence (Q07869 1-468): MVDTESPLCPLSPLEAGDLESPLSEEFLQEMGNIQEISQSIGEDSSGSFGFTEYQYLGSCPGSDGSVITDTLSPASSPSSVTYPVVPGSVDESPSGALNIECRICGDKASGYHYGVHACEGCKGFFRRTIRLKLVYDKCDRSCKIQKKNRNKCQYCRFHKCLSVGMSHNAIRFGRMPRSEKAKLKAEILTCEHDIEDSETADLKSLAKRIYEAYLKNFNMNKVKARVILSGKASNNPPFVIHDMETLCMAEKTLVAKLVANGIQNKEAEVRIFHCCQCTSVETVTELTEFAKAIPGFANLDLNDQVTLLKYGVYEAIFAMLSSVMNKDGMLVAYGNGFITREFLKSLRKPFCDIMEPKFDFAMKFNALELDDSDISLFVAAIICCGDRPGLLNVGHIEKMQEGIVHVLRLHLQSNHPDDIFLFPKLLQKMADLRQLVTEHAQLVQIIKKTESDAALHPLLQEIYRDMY
Description: as §1, §2

Gal-4 hPPARγ = target: T4, Gal-4 hPPARγ (Homo sapiens, UniProt P37231); test: Gal4-hPPARγ transient transfection reporter assay in Cos cells; details: luciferase reporter, 24 hours with compound, scale 1-5, read-out: Gal-4 hPPAR γ EC50 (scaled number)
T4 construct: Plasmids pGal4-hPPARα, pGal4-hPPARγ, pGal4-hPPARδ and pG5-TK-pGL3 were constructed as previously described by Staels, Bart, et al., Nature 1998 Jun; 25
T4 sequence (P37231 238-505 limits assumed): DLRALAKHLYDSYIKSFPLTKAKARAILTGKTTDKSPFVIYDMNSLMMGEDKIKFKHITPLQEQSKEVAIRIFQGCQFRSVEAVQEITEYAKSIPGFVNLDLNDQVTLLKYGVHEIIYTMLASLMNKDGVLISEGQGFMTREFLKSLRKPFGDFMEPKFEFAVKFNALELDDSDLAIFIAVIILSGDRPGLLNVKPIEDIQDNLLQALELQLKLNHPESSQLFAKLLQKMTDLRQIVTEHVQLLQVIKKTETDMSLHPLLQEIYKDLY
Outline: (§3)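 Cos cells transiently co-transfected with Gal4-hPPAR expression plasmid, pG5-TK-pGL3 luciferase reporter and β-galactosidase control, then treated 24 h with increasing compound concentrations in DMEM containing 0.2% FCS. Luciferase normalised to β-galactosidase; EC50 from curve fit, at least three experiments.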

Gal-4 hPPARβ/δ = target: T5, Gal-4 hPPARβ/δ (Homo sapiens, UniProt Q03181); test: Gal4-hPPARδ transient transfection reporter assay in Cos cells; details: luciferase reporter, 24 hours with compound, scale 1-5, read-out: Gal-4 hPPAR β/δ EC50 (scaled number)
T5 construct: Plasmids pGal4-hPPARα, pGal4-hPPARγ, pGal4-hPPARδ and pG5-TK-pGL3 were constructed as previously described by Staels, Bart, et al., Nature 1998 Jun; 25
T5 sequence (Q03181 171-441 limits assumed): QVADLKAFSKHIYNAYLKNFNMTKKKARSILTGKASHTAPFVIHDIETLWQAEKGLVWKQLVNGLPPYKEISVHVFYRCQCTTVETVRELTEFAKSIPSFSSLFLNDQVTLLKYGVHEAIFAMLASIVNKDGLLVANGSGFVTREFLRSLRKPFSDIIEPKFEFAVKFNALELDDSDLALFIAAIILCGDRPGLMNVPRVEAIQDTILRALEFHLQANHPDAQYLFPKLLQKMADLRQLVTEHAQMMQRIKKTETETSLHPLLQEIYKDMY
Outline: as §3

Gal-4 hPPARα = target: T6, Gal-4 hPPARα (Homo sapiens, UniProt Q07869); test: Gal4-hPPARα transient transfection reporter assay in Cos cells; details: luciferase reporter, 24 hours with compound, scale 1-5, read-out: Gal-4 hPPAR α EC50 (scaled number)
T6 construct: Plasmids pGal4-hPPARα, pGal4-hPPARγ, pGal4-hPPARδ and pG5-TK-pGL3 were constructed as previously described by Staels, Bart, et al., Nature 1998 Jun; 25
T6 sequence (Q07869 200-468 limits assumed): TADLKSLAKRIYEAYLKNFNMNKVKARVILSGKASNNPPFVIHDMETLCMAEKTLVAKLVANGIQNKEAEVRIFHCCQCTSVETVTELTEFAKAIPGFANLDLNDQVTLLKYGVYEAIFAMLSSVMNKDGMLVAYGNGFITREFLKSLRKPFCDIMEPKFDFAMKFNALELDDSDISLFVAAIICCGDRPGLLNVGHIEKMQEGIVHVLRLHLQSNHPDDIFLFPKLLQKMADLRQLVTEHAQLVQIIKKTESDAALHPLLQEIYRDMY
Outline: as §3

Row | SMILES | EC50 (Full Length hPPARβ/δ) [µM] | EC50 (Full Length hPPARγ) [µM] | EC50 (Full Length hPPARα) [µM] | EC50 (Gal-4 hPPARγ) [µM] | EC50 (Gal-4 hPPARβ/δ) [µM] | EC50 (Gal-4 hPPARα) [µM]
1 | Cn1nc(-c2ccccc2)cc1COC(=O)c1ccc(SC(C)(C)C(=O)O)cc1 [Compound 1, 2-methyl-2-(4-(((1-methyl-3-phenyl-1H-pyrazol-5-yl)methoxy)carbonyl)phenylthio)propanoic acid] | > 1 | 0.051 to 0.2 | < 0.001 | > 1 | > 1 | 0.001 to 0.05
2 | Cc1ccc(Cn2nncc2COC(=O)c2ccc(SC(C)(C)C(=O)O)cc2)cc1 [Compound 62, 2-methyl-2-(4-(((1-(4-methylbenzyl)-1H-1,2,3-triazol-5-yl)methoxy)carbonyl)phenylthio)propanoic acid] | – | – | 0.051 to 0.2 | > 1 | > 1 | 0.051 to 0.2
3 | CC(C)c1ccc(-n2cc(COC(=O)c3ccc(SC(C)(C)C(=O)O)cc3)nn2)cc1 [Compound 56, 2-(4-(((1-(4-isopropylphenyl)-1H-1,2,3-triazol-4-yl)methoxy)carbonyl)phenylthio)-2-methylpropanoic acid] | – | 0.201 to 0.999 | 0.001 to 0.05 | > 1 | > 1 | 0.051 to 0.2
4 | CC(C)(Sc1ccc(C(=O)OCCn2cc(-c3ccc(C(C)(C)C)cc3)nn2)cc1)C(=O)O [Compound 89, 2-(4-((2-(4-(4-tert-butylphenyl)-1H-1,2,3-triazol-1-yl)ethoxy)carbonyl)phenylthio)-2-methylpropanoic acid] | – | – | 0.001 to 0.05 | > 1 | > 1 | 0.051 to 0.2
5 | CCCn1c(COC(=O)c2ccc(OC(C)(C)C(=O)O)c(OC)c2)nn(Cc2ccc(C(C)(C)C)cc2)c1=O [Compound 180, 2-(4-(((1-(4-tert-butylbenzyl)-5-oxo-4-propyl-4,5-dihydro-1H-1,2,4-triazol-3-yl)methoxy)carbonyl)-2-methoxyphenoxy)-2-methylpropanoic acid] | – | – | < 0.001 | > 1 | > 1 | 0.201 to 0.999
6 | CCCCCCn1c(COC(=O)c2ccc(OC(C)(C)C(=O)O)c(OC)c2)nn(Cc2ccc(C(C)(C)C)cc2)c1=O [Compound 185, 2-(4-(((1-(4-tert-butylbenzyl)-4-hexyl-5-oxo-4,5-dihydro-1H-1,2,4-triazol-3-yl)methoxy)carbonyl)-2-methoxyphenoxy)-2-methylpropanoic acid] | – | – | < 0.001 | > 1 | > 1 | 0.001 to 0.05

More lines, now with the values ahead:

Row | EC50 (Full Length hPPARβ/δ) [µM] | EC50 (Full Length hPPARγ) [µM] | EC50 (Full Length hPPARα) [µM] | EC50 (Gal-4 hPPARγ) [µM] | EC50 (Gal-4 hPPARβ/δ) [µM] | EC50 (Gal-4 hPPARα) [µM] | SMILES
7 | – | – | < 0.001 | > 1 | > 1 | 0.001 to 0.05 | Cc1ccc(Cn2cc(C(C)OC(=O)c3ccc(SC(C)(C)C(=O)O)cc3)nn2)cc1 (stereo not shown) [Compound 81, 2-methyl-2-(4-((1-(1-(4-methylbenzyl)-1H-1,2,3-triazol-4-yl)ethoxy)carbonyl)phenylthio)propanoic acid]
8 | – | – | 0.001 to 0.05 | > 1 | > 1 | 0.201 to 0.999 | Cn1nc(-c2ccccc2)cc1COC(=O)c1ccc(OC(C)(C)C(=O)O)cc1 [Compound 2, 2-methyl-2-(4-(((1-methyl-3-phenyl-1H-pyrazol-5-yl)methoxy)carbonyl)phenoxy)propanoic acid]
9 | – | > 1 | 0.051 to 0.2 | > 1 | > 1 | 0.201 to 0.999 | CCCn1c(COC(=O)c2ccc(OC(C)(C)C(=O)O)cc2)nn(Cc2ccc(OC(F)(F)F)cc2)c1=O [Compound 168, 2-methyl-2-(4-(((5-oxo-4-propyl-1-(4-(trifluoromethoxy)benzyl)-4,5-dihydro-1H-1,2,4-triazol-3-yl)methoxy)carbonyl)phenoxy)propanoic acid]
10 | – | – | 0.051 to 0.2 | > 1 | > 1 | 0.051 to 0.2 | COc1ccc(Cn2cc(COC(=O)c3ccc(SC(C)(C)C(=O)O)cc3)nn2)cc1 [Compound 68, 2-(4-(((1-(4-methoxybenzyl)-1H-1,2,3-triazol-4-yl)methoxy)carbonyl)phenylthio)-2-methylpropanoic acid]
11 | – | 0.051 to 0.2 | < 0.001 | 0.051 to 0.2 | > 1 | < 0.001 | CCCCCCCn1c(COC(=O)c2ccc(OC(C)(C)C(=O)O)c(OC)c2)nn(Cc2ccc(C(C)(C)C)cc2)c1=O [Compound 212, 2-(4-(((1-(4-tert-butylbenzyl)-4-heptyl-5-oxo-4,5-dihydro-1H-1,2,4-triazol-3-yl)methoxy)carbonyl)-2-methoxyphenoxy)-2-methylpropanoic acid]

— patent publication US20100184815A1 (priority 2008, published 2010)
